Data as given in ChEMBL document CHEMBL3714738, “Novel indole, indazole and benzimidazole arylamides as p2x3 and/or p2x2/3 antagonists” (2012).

How the values were obtained:
P2X purinoceptor 3 = molecular target: T1, P2X purinoceptor 3 (Rattus norvegicus, UniProt P49654); experiment: Antagonist activity against rat P2X3 receptor expressed in CHOK1 cells assessed as inhibition of alpha,beta-meATP-induced calcium response incubated for 20 mins by Fluo-3AM dye based FLIPR assay; format: functional, cell-based, CHO-K1
T1 sequence (P49654 whole entry): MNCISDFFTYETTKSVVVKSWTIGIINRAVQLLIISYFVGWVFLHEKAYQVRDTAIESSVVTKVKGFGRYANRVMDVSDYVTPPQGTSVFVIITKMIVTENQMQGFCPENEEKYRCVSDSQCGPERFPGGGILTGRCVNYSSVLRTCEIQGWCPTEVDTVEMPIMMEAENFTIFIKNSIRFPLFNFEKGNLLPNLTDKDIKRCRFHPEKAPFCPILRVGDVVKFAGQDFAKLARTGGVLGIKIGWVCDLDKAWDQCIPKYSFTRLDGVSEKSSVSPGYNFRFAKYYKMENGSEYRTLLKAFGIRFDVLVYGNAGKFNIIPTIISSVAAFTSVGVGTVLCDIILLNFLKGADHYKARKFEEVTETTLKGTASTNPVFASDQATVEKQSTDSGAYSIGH

[1] = molecular target: T2, P2X2/P2X3 heterotrimeric receptor (Homo sapiens, UniProt P56373+Q9UBL9); experiment: Antagonist activity against human P2X2/3 receptor expressed in CHOK1 cells assessed as inhibition of alpha,beta-meATP-induced calcium response incubated for 20 mins by Fluo-3AM dye based FLIPR assay; format: functional, cell-based, CHO-K1
T2 sequence (Q9UBL9 whole entry): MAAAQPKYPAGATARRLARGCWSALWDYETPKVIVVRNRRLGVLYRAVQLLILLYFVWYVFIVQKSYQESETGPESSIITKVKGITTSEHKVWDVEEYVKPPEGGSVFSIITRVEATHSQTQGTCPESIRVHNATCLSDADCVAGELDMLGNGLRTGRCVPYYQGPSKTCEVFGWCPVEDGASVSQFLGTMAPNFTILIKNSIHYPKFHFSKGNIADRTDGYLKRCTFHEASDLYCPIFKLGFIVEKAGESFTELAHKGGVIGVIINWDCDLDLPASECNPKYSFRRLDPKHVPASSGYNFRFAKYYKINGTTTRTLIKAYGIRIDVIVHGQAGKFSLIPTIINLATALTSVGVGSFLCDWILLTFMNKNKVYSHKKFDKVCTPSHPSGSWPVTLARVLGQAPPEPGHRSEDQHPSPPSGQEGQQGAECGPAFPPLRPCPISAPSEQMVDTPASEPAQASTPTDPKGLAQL
T2 sequence (P56373 whole entry): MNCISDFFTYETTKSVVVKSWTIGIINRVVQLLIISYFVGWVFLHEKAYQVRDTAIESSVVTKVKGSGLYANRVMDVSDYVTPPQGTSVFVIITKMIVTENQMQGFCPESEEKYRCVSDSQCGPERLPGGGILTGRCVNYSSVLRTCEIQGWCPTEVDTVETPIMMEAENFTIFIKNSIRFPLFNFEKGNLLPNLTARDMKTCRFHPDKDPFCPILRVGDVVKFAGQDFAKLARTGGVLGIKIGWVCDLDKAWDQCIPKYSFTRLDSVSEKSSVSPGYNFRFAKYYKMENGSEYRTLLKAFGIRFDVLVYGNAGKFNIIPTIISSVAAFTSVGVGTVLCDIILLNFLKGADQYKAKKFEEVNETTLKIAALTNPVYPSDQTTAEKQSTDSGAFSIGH

Row | Compound | Ki (P2X purinoceptor 3) [nM] | Ki [1] [nM]
1 | Cc1ccc(-c2cc(C(=O)N[C@@H](C)CO)cc3c2ccn3-c2ccccc2)nc1 | 102 | 2880
2 | Cc1ccc(-c2cc(C(=O)N[C@@H](C)CO)cc3c2cnn3CC(C)C)nc1 | 288 | 7240
3 | Cc1ccc(-c2cc(C(=O)NCc3cnc(C)cn3)cc3c2ccn3-c2ccccc2)nc1 | 18.6 | 457
